# From US20220160817A1, “Pharmaceutical composition with improved stability” (Foresee Pharmaceuticals Co., Ltd., priority 2014, published 2022)
# How the values were obtained:
# Format in all cases: physicochemical
# [1] = Octreotide mesylate with excess methane sulfonic acid in solvent with added lactide monomer; conditions: pH of the salt solution 2.4, pharmaceutically acceptable solvent
# Excerpt: U.S. Pat. No. 8,343,513 further discloses that in order to reduce the impurities generation, low molecular weight polymers with high acid numbers and significant amount of low pKa acid additives or oligomers have to be used. Such acidic dispersed phases are not suitable for human parenteral use due to tissue irritation from the low pH. […] In fact more impurities are generated for the solution with excess acid than the one without.
# [2] = FMOC-SER-OH / FMOC-ARG-OH reaction with D,L-lactide monomers in NMP at 25° C., HPLC; conditions: 25% D,L-lactide in NMP
# Description: All impurity structures identified have polymers reacting with the arginine group of the peptide. In the present invention, it is shown that the conjugates of lactide monomers reacting with the serine group of the peptide are the more significant impurities generated, that were not observed previously. To test the generation of leuprolide conjugates with lactide monomers, FMOC-ARG-OH or FMOC-SER-OH was dissolved in NMP. To this solution D,L-lactide monomers were added. The solution was mixed well by vortexing. 5 uL of the solution was added to an HPLC vial with 0.5 mL of acetonitrile and 0.5 mL stability buffer (0.6% TEA/0.3% H3PO4 in water, pH=3.0). The sample was then analyzed by HPLC. The remaining solutions were stored in a glass vial at 25° C. Samples were taken at specified time points and analyzed by UPLC.
# [3] = L-lactide monomer impurity generation with leuprolide mesylate in NMP, HPLC; conditions: NMP with 10% L-lactide, 3 hours at 37° C.
compound,measurement,setting,value
octreotide mesylate,stability of the peptide with added lactide monomer,[1],highly unstable
NC(N)=NCCC[C@H](NC(=O)OCC1c2ccccc2-c2ccccc21)C(=O)O [FMOC-ARG-OH],"impurities generated with D,L-lactide monomers",[2]; 1 day at 25° C.,less than that seen with the serine
leuprolide mesylate [LAMS],lactide-related impurity peak shape in chromatogram,[3],single peak
O=C(N[C@@H](CO)C(=O)O)OCC1c2ccccc2-c2ccccc21 [FMOC-SER-OH],"impurities generated with D,L-lactide monomers",[2]; 3 hours at 25° C.,very little impurities
same,"impurities generated with D,L-lactide monomers",[2]; 1 day at 25° C.,significant amount of impurities
